pEC50: −log10 of the molar value.

The target of this assay is human GLP-1R (Homo sapiens, UniProt P43220). Kind of assay: GLP-1R Cell Assay 2: CHO-K1_hGLP-1Rlow_clone10 cells, LANCE Ultra cAMP TR-FRET assay. It counts as cell-based. More on the design: expressed in transfected cells. To be noted: Table 3, percent activation relative to control GLP-1 peptide agonist. Here is the method: Stable cell lines expressing high and low GLP-1R surface expression were generated in CHO-K1 cells transfected (Fugene 6) with a puromycin selectable DNA plasmid encoding human GLP-1R receptor (accession number: NM_002062.5) under control of an EF1A promoter. Transfected cells were seeded into 24-well plates (9,000 cells/well) containing complete medium and incubated in a humidified incubator at 37° C. with 5% carbon dioxide. After overnight incubation, medium was replaced with complete medium supplemented with puromycin (6 μg/mL) and refreshed every 2-3 days to select for stably transfected cells. Individual pools of selected cells were expanded prior to analysis for responsiveness to GLP-1 control peptide using a TR-FRET assay to detect cAMP (LANCE Ultra cAMP Assay, Perkin Elmer). Briefly, cells were collected in Versene solution, plated in 384-well plates (1,000 cells/well) and combined with serially diluted GLP-1R control peptide (10 nL) using an acoustic dispenser (ECHO). Plates were incubated for 30 minutes at 25° C. prior to the addition of EU-cAMP tracer (5 μL) and Ulight-anti-cAMP (5 μL) reagents to each well, followed by 15 minutes incubation at 25° C. TR-FRET signal was detected using an EnVision Multimode Plate Reader (excitation=320 nm; emission=615 and 655 nm). Dose-response curves were used to generate EC50 values as a measure of responsiveness to the GLP-1R control peptide. Selected cell lines were monitored for responsiveness over multiple passages to ensure stability. […] Briefly, GLP-1R expression was analyzed by flow cytometry using a fluorescein-labeled Exendin-4 peptide fluorescent probe (FLEX). Cells were harvested in Versene solution and washed 3-times with PBS+0.5% BSA before incubation with FLEX reagent (10 μM) for 2 hours at room temperature. After incubation, cells were washed 3-times in PBS+0.5% BSA before final resuspension in PBS prior to analysis by flow cytometry to measure FLEX mean fluorescence intensity (MFI) as a measure of GLP-1R expression on the cell surface.
Sequence of human GLP-1R (P43220 24-463): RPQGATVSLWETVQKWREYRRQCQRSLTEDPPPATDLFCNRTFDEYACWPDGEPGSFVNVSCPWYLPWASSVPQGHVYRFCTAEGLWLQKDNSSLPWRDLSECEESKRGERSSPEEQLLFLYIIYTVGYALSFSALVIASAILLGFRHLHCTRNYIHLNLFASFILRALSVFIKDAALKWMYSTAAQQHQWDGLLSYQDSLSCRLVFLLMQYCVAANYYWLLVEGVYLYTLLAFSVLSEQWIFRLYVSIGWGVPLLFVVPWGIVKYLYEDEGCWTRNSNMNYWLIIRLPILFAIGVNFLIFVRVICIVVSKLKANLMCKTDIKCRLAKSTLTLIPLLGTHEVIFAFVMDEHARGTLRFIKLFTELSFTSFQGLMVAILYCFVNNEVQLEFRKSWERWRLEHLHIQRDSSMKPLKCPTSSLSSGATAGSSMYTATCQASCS
For compound testing in the CHO-K1_hGLP-1Rlow_clonel0 cell lines, cells were seeded in 384-well plates (1,000 cells/well). Test compounds were serially diluted in DMSO (10-point, 3-fold dilution), added to wells using an ECHO dispenser (10 nL/well) and plates were centrifuged for 1 min and agitated for 2 min at room temperature prior to 30-minute incubation at 25° C. After incubation, Eu-cAMP (5 p,L) and Ulight-anti-cAMP (5 μL) reagents were added to each well, followed by centrifugation for 1 minute, agitation for 2 minutes at room temperature, and final incubation of the plates at 25° C. for 15 minutes. Plates were read using an EnVision microplate reader (excitation=320 nm; emission=615 and 655 nm). Dose-response curves were generated from duplicate wells based on percent activation calculated relative to a control GLP-1 peptide agonist that was run in parallel. EC50 values were determined by fitting percent activation as a function of compound concentration using the Hill equation (XLfit).
For `O=C(O)c1ccc2nc(CN3CCC(c4cccc(OCc5coc6c(C(F)(F)F)cccc56)n4)CC3)n(C[C@@H]3CCO3)c2c1` [Compound 175, (S)-1-(oxetan-2-ylmethyl)-2-((4-(6-((7-(trifluoromethyl)benzofuran-3-yl)methoxy)pyridin-2-yl)piperidin-1-yl)methyl)-1H-benzo[d]imidazole-6-carboxylic acid], the pEC50 was 7.84.

The compound `CCn1cccc1Cn1c(CN2CCC(c3cccc(OCc4nc5c(F)cc(C#N)cc5s4)n3)CC2)nc2ccc(C(=O)O)cc21` [Compound 180, 2-((4-(6-((6-cyano-4-fluorobenzo[d]thiazol-2-yl)methoxy)pyridin-2-yl)piperidin-1-yl)methyl)-1-((1-ethyl-1H-pyrrol-2-yl)methyl)-1H-benzo[d]imidazole-6-carboxylic acid] gave a pEC50 of 6.67. With `CCn1cncc1Cn1c(CN2CC[C@@]3(c4nccc(N5CCc6cc(C#N)cc(F)c6C5)n4)C[C@H]3C2)nc2ccc(C(=O)O)cc21` [Compound 186-P1] the figure was 6.19; with `O=C(O)c1ccc2nc(CN3CCC(c4cccc(OCc5nc(C6CC6)cs5)n4)CC3)n(C[C@@H]3CCO3)c2c1` [Compound 181, (S)-2-((4-(6-((4-cyclopropylthiazol-2-yl)methoxy)pyridin-2-yl)piperidin-1-yl)methyl)-1-(oxetan-2-ylmethyl)-1H-benzo[d]imidazole-6-carboxylic acid], 7.64.

`CCn1cncc1Cn1c(CN2CC[C@]3(c4nccc(N5CCc6cc(C#N)cc(F)c6C5)n4)C[C@@H]3C2)nc2ccc(C(=O)O)cc21` (single isomer, unassigned) [Compound 186-P2] had a pEC50 of less than 5.00. For `CCn1nncc1Cn1c(CN2CCC(c3cccc(OCc4nc5c(F)cc(C#N)cc5s4)n3)CC2)nc2ccc(C(=O)O)cc21` [Compound 178, 2-((4-(6-((6-cyano-4-fluorobenzo[d]thiazol-2-yl)methoxy)pyridin-2-yl)piperidin-1-yl)methyl)-1-((1-ethyl-1H-1,2,3-triazol-5-yl)methyl)-1H-benzo[d]imidazole-6-carboxylic acid] the value was 8.12; for `CCn1cncc1Cn1c(CN2CC[C@]3(c4nccc(OCc5ccc(C#N)cc5F)n4)C[C@@H]3C2)nc2ccc(C(=O)O)cc21` [Compound 185-P2, 2-(((1S,6R)-6-(4-((4-cyano-2-fluorobenzyl)oxy)pyrimidin-2-yl)-3-azabicyclo[4.1.0]heptan-3-yl)methyl)-1-((1-ethyl-1H-imidazol-5-yl)methyl)-1H-benzo[d]imidazole-6-carboxylic acid], 7.74.

`CCn1cncc1Cn1c(CN2CCC(c3cccnc3OCc3ccc(C#N)cc3F)CC2)nc2ccc(C(=O)O)cc21` [Compound 169, 2-((4-(2-((4-cyano-2-fluorobenzyl)oxy)pyridin-3-yl)piperidin-1-yl)methyl)-1-((1-ethyl-1H-imidazol-5-yl)methyl)-1H-benzo[d]imidazole-6-carboxylic acid] had a pEC50 of 8.94. For `CCn1cncc1Cn1c(CN2CCC(c3cccnc3OCc3ccc(C(N)=O)cc3F)CC2)nc2ccc(C(=O)O)cc21` [Compound 170, 2-((4-(2-((4-carbamoyl-2-fluorobenzyl)oxy)pyridin-3-yl)piperidin-1-yl)methyl)-1-((1-ethyl-1H-imidazol-5-yl)methyl)-1H-benzo[d]imdiazole-6-carboxylic acid] the value was 6.92; for `CCn1cncc1Cn1c(CN2CC[C@@]3(c4nccc(OCc5ccc(C#N)cc5F)n4)C[C@H]3C2)nc2ccc(C(=O)O)cc21` [Compound 185-P1, 2-(((1R,6S)-6-(4-((4-cyano-2-fluorobenzyl)oxy)pyrimidin-2-yl)-3-azabicyclo[4.1.0]heptan-3-yl)methyl)-1-((1-ethyl-1H-imidazol-5-yl)methyl)-1H-benzo[d]imidazole-6-carboxylic acid], 8.77. With `O=C(O)c1ccc2nc(CN3CCC(c4cccc(OCc5cc6cccc(C(F)(F)F)c6o5)n4)CC3)n(C[C@@H]3CCO3)c2c1` [Compound 177, (S)-1-(oxetan-2-ylmethyl)-2-((4-(6-((7-(trifluoromethyl)benzofuran-2-yl)methoxy)pyridin-2-yl)piperidin-1-yl)methyl)-1H-benzo[d]imidazole-6-carboxylic acid] the figure was 8.17. `O=C(O)c1ccc2nc(CN3CCC(c4cccc(OCc5coc6c(C(F)(F)F)cc(Br)cc56)n4)CC3)n(C[C@@H]3CCO3)c2c1` [Compound 182, (S)-2-((4-(6-((5-bromo-7-(trifluoromethyl)benzofuran-3-yl)methoxy)pyridin-2-yl)piperidin-1-yl)methyl)-1-(oxetan-2-ylmethyl)-1H-benzo[d]imidazole-6-carboxylic acid] showed a pEC50 of 7.47.
